Assay results as given in publication PMC11931052, “Efficacy of dispirotripiperazine PDSTP in a golden Syrian hamster model of SARS-CoV-2 infection” (Frontiers in Microbiology, 2025).
Values joined by “and” are separate entries in the source; they are usually repeats but may differ in a detail not shown here. Equal values may be shown once. “Also recorded” adds a separate entry of the source.

What was measured:
[1] = test system: SARS-CoV-2 clinical isolate 35245; test: Microtetrazolium (MTT) test, SARS-CoV-2 35245; assay type: cell-based; conditions: Severe acute respiratory syndrome coronavirus 2, read-out: Antiviral activity IC50 against coronaviruses, SARS-CoV-2 clinical isolate 35245, MTT
Description: The compound’s activity against OC43 and SARS-CoV-235245 was based on the inhibition of virus-induced cytopathogenicity in acutely infected Vero-76 cells (MOI 0.01). Briefly, Vero-76 cells were seeded in 96-well plates at a density of 3 × 10^4 cells/well and incubated in a growth medium in a 5% CO2 at 37°C overnight. Cell monolayers were then infected with 50 μL of the appropriate viral dilution in maintenance medium [D-MEM and MEM-Earl (Gibco, Thermo Fisher Scientific, MA United States) with L-glutamine (Gibco), 1 mM sodium pyruvate (Gibco), and 0.025 g/L kanamycin (Gibco), supplemented with 0.5% inactivated FBS (Harlan Sera-Lab, Loughborough, United Kingdom), respectively] to give an MOI of 0.01, without or with serial dilutions of test samples. After 6 (HCoV-OC43) and 4/5 (SARS-CoV-2) days of incubation at 37°C, the extent of cell viability was quantified using a tetrazolium-based colorimetric method, in which the reduction of 3-(4,5-dimethylthiazol-2-yl)-2,5-diphenyl-tetrazolium bromide (MTT) by mitochondrial dehydrogenases to a soluble colored formazan was measured using a spectrophotometer (Infinity 200, Tecan Austria GmbH, Austria) at 570 nm, as previously reported ([Sanna et al., 2020]).

[2] = Chronic toxicity, intranasal administration, rabbits; assay type: in vivo; conditions: repeated administration for 14 days, 10-200 mg/kg
[3] = test system: SARS-CoV-2 clinical isolate 35245; test: Plaque reduction assay, SARS-CoV-2 35245; assay type: cell-based; conditions: Severe acute respiratory syndrome coronavirus 2, read-out: Antiviral activity IC50 against coronaviruses, SARS-CoV-2 clinical isolate 35245, PR
[4] = Acute toxicity, intravenous administration, rats; conditions: both sexes, rat, in vivo, Rats (M/F)
[5] = Acute toxicity, intraperitoneal administration, mice; conditions: both sexes, mouse, in vivo, ip, Mice (M/F)
[6] = Allergenicity study, guinea pigs; assay type: in vivo; conditions: intradermal sensitizing dose 40 µg into the ear; epicutaneous and conjunctival testing
[7] = Acute toxicity, topical application, mice; assay type: in vivo; conditions: for LD50: acute toxicity, topical application
[8] = Acute toxicity, intragastric administration, rats; assay type: in vivo; conditions: maximum dose 5000 mg/kg
[9] = test system: Salmonella typhimurium strains TA 97, TA 98 and TA 100; test: Ames test (Salmonella/microsome test); conditions: 0.1 to 1000 µg/ cup; MA+ and MA-
Description: PDSTP doses tested: 0.1 to 1000 µg/ cup.
Test subjects: Salmonella typhimurium strains TA 97, TA 98 and TA 100.
Metabolic activation: MA+ and MA-.

[10] = Acute toxicity, topical application, rats; assay type: in vivo; conditions: for LD50: acute toxicity, topical application
[11] = Reproductive toxicity: generative function of sexually mature animals; assay type: in vivo, white laboratory rats; conditions: 10% solution topically on 5% of body surface area for 25 days
Source text: PDSTP doses tested: 10% solution
Test subjects: white laboratory rats of both sexes
The drug was applied topically on 5% of body surface area (3x5 cm area) for 25 days.

[12] = test system: bone marrow, liver, kidney and spleen cells; test: DNA damage accounting test (DNA Comet); assay type: in vivo, F1 hybrids of SWAxC57BL/6 mice; conditions: 400 mg/kg and 1000 mg/kg topically
Description: PDSTP doses tested: 400 mg/kg and 1000 mg/kg
Test subjects: F1 hybrids of SWAxC57BL/6 mice.
Method of administration: topically.

[13] = Acute toxicity, intragastric administration, mice; assay type: in vivo; conditions: maximum dose 1000 mg/kg
[14] = test system: SARS-CoV-2 B.1.1 GR MM1/2020/Aug-21 clinical isolate; test: Golden Syrian hamster model of SARS-CoV-2-induced pneumonia; assay type: in vivo; conditions: for Body weight: day 0
[15] = Acute toxicity, intravenous administration, mice; conditions: both sexes, mouse, in vivo, Mice (M/F)
[16] = test system: herpes simplex epithelial keratitis; parameters: method as in Alimbarova et al., 2022; conditions: rabbit model; ref Alimbarova et al., 2022; cited from earlier work
HCoV-229E = test: Plaque reduction assay, HCoV-229E in Vero E6 cells; assay type: cell-based
Description: Vero E6 cells were incubated in the presence of PDSTP and reference compounds (100.0, 20.0, 4.0, and 0.8 μM concentrations) for 1 h at 37°C in a 5% CO2 and then infected for 1 h with 250 μL of the corresponding virus (SARS-CoV-2 PV10734 or HCoV-229E) dilutions to obtain 50–100 PFU/well. The plates were then incubated for 1 h at 37°C in a 5% CO2 atmosphere. Following the removal of the unabsorbed virus, 400 μL of the medium (D-MEM with L-glutamine, 4,500 mg/L D-glucose, and 1% inactivated FBS) containing 0.75% methyl-cellulose (M0512, viscosity 4,000 cP, Sigma-Aldrich, United States) and the serial dilutions of the compounds were added and incubated for 4 (SARS-CoV-2) or 2 (HCoV-229E) days at 37°C in a 5% CO2 atmosphere. Subsequently, the cells were fixed and stained with a 0.2% crystal violet solution (V5265, Sigma-Aldrich, United States) and then the number of plaques was calculated. The degree of cell growth/viability and viral multiplication at each drug concentration tested was expressed as a percentage of the untreated control. Concentrations resulting in 50% inhibition (CC50 or EC50) were determined using linear regression analysis.

[17] = maximum regulated amount applied to the skin
[18] = 10 mg/kg, severity score 0 to 6

Compound: Cc1nc(N2CC[N+]3(CC2)CC[N+]2(CCNCC2)CC3)c([N+](=O)[O-])c(N2CC[N+]3(CC2)CC[N+]2(CCNCC2)CC3)n1.Cl.Cl.O.O.O.O.O.O.O.O.O.[Cl-].[Cl-].[Cl-].[Cl-] [PDSTP, 3,3′-(2-methyl-5-nitropyrimidine-4,6-diyl)bis-3,12-diaza-6,9-diazonia-dispiro[5.2.5.2]hexadecane tetrachloride dihydrochloride nonahydrate]
- IC50 [1]: 14.5 ± 3.3 µM
- Toxic effect on organs and systems [2]: toxic effect on organs and systems was not revealed
- IC50 [3]: 21.4 ± 7.4 µM
- LD50 [4]: 140 mg/kg
- LD50 [5]: 192 mg/kg
- Sensitizing properties [6]: no sensitizing properties
- LD50 [7]: greater than 31.25 mg/cm^2
- Toxicity and local irritant effects on skin [7, 17]: No manifestations of toxicity and local irritant effects were observed
- LD50 ([7]; mouse, in vivo, topical or ocular, 2500 mg/kg, read-out: LD50): > 2500 mg/kg
- Clinical signs [8]: piloerection and diarrhea, deterioration of hair coat, decreased motor activity, and decreased body weight
- Mortality [8]: The death of animals was not recorded
- Mutagenic activity (Ames test) [9]: no mutagenic activity
- LD50 [10]: greater than 31.25 mg/cm^2
- Toxicity and local irritant effects on skin [10, 17]: No manifestations of toxicity and local irritant effects were observed
- LD50 ([10]; rat, in vivo, topical or ocular, 2500 mg/kg, read-out: LD50): > 2500 mg/kg
- Effect on generative function of sexually mature animals [11]: no pathological effect
- Induction of DNA damage (DNA Comet) [12]: does not induce DNA damage
- Clinical signs [13]: piloerection and diarrhea, deterioration of hair coat, decreased motor activity, and decreased body weight
- Mortality [13]: The death of animals was not recorded
- Animals with completely reduced SARS-CoV-2-induced lung pathology ([14]; 10 mg/kg): three
- Body weight ([14]; 10 mg/kg): 100,7±0,3 gram
- Animals with lung severity score "mild" [14, 18]: two
- Animals with lung severity score "none" [14, 18]: three out of six
- Animals with completely reduced SARS-CoV-2-induced lung pathology ([14]; 20 mg/kg): two
- Body weight ([14]; 20 mg/kg): 94,1±0,4 gram
- Body weight ([14]; 40 mg/kg): 96,7±0,3 gram
- Alveolar edema (histopathology) ([14]; 10 or 20 mg/kg): moderate
- Reduction in lung viral titer vs negative control ([14]; […], not statistically significant): 1.5 log10
- Reduction of viral RNA copy levels in lung tissue vs vehicle ([14]; […], statistically non-significant): 2.2 log10
- Core body temperature ([14]; all animal groups): within the normal range
- Mortality ([14]; all animal groups): None of the animals died
- Body weight loss ([14]; hamster, in vivo): no more than 10%
- Reduction of viral RNA copy levels in lung tissue vs vehicle ([14]; hamster, in vivo): 1.6 log10 and 2.0 log10
- Viral RNA copy levels in turbinate tissue ([14]; hamster, in vivo): statistically significantly diminished
- LD50 [15]: 150 mg/kg
- Reduction of mean progression and corneal lesions [16]: comparable to traditional aciclovir
- Antiviral activity against alphacoronavirus HCoV-229E (HCoV-229E): no in vitro activity; also recorded: No antiviral activity was detected
- IC50 (HCoV-229E; Human coronavirus 229E, Vero C1008, Vero E6, mean ± SD, read-out: Antiviral activity IC50 against coronaviruses, HCoV-229E, PR): > 100 µM
